In patent publication US10023902B2, “Methods for detecting enzyme activity using fluorescence lifetime imaging” (Purdue Research Foundation, priority 2012, dated 2018):
Residues, ends and D or L forms follow the SMILES beside them. No end group written: not given here. *: point of attachment. X1 = C[N+]1=C(C=CC=CC=C2N(CCCCCC(=O)NCCN3C(=O)CC(*)C3=O)c3ccccc3C2(C)C)C(C)(C)c2ccccc21; Cy5 = Cy5 fluorophore label on the Cys side chain

Tests used:
Syk kinase = experiment: FLIM detection of Syk kinase activity with SAStide-TAT biosensor in MCF7 breast cancer cells; assay type: cell-based
Abl kinase = experiment: Biosensor Cy5 fluorescence lifetime analysis in live MEFs (FLIM); assay type: cell-based, mouse; conditions: control MEFs expressing Abl kinase, 50 nM, 24 h; non-parametric ANOVA, P<0.05
Protocol: With reference to FIG. 3, WT MEF cells (unless otherwise indicated) were cultured on cover slips and incubated with the biosensor peptide or a control (as indicated, 50 nM for each) for 24 h, then imaged using the FLIM system. Data were extracted from raw FLIM images and represented as lifetime maps of autofluorescence, Cy5 only, Abl-TAT in Abl (−/−) MEFs, Abl-TAT in WT MEFs, Abl-F-mutant, Abl-phospho. With reference to FIG. 3A, fluorophore lifetime per cell was averaged for at least 20 cells in 3-5 replicate experiments and plotted as a distribution of lifetimes observed in each condition. Error bars represent standard error of the mean for each lifetime value. […] Error bars represent SEM.
Cover slips were washed with PBS and imaged immediately.
Average lifetimes per cell for multiple cells were calculated and plotted to show the distribution of lifetimes observed for the biosensor and each control (FIG. 3G). The distributions were determined to be non-Gaussian, so non-parametric ANOVA with a Dunn's post-test was used to evaluate statistical significance (P<0.05) for differences in the mean lifetimes. […] These experiments confirmed that the increase in Cy5 lifetime was specific and due to Abl-dependent phosphorylation of the biosensor peptide on tyrosine. […]

MEFs = conditions: FCS, Cy5 alone vs biosensor
Protocol: Sequestration of the biosensor in endosomes was tested by staining for an endosomal marker. […] Peptide degradation, a potential issue in some cell types, was also examined.

## DEEDYEEPDEPGGCCy5GGRKKRRQRRRPQ (DEEDYEEPDEPGGC(Cy5)GGRKKRRQRRRPQ) [SAStide-TAT, Cy5-labeled Syk substrate peptide]
Syk kinase; active Syk-expressing cells, pervanadate (Syk activation conditions), co-localizes with decreased EGFP lifetime
  Cy5 lifetime shift of biosensor: increased Cy5 lifetime

## Abl-F-mutant: analog having a phenylalanine substitution for the tyrosine residue of the Abltide-TAT biosensor, SEQ ID NO:3 (EAIYAAP)
Abl kinase
  mean Cy5 fluorescence lifetime per cell: significantly lower mean lifetimes than both Abl-TAT in MEFs expressing Abl kinase and Abl-phospho

## CCN1/C(=C/C=C/C=C/C2=[N+](CCCCCC(=O)O)c3ccc(S(=O)(=O)O)cc3C2(C)C)C(C)(C)c2cc(S(=O)(=O)[O-])ccc21 [Cy5, reference compound]
Abl kinase
  mean Cy5 fluorescence lifetime per cell: significantly lower mean lifetimes than both Abl-TAT in MEFs expressing Abl kinase and Abl-phospho

## CC[C@H](C)[C@H](NC(=O)[C@H](C)NC(=O)[C@H](CCC(=O)O)NC(=O)CNC(=O)CN)C(=O)N[C@@H](Cc1ccc(O)cc1)C(=O)N[C@@H](C)C(=O)N[C@@H](C)C(=O)N1CCC[C@H]1C(=O)N[C@@H](CSC1CC(=O)N(CCNC(=O)CCCCCN2C(=CC=CC=CC3=[N+](C)c4ccccc4C3(C)C)C(C)(C)c3ccccc32)C1=O)C(=O)NCC(=O)NCC(=O)N[C@@H](CCCNC(=N)N)C(=O)N[C@@H](CCCCN)C(=O)N[C@@H](CCCCN)C(=O)N[C@@H](CCCNC(=N)N)C(=O)N[C@@H](CCCNC(=N)N)C(=O)N[C@@H](CCC(N)=O)C(=O)N[C@@H](CCCNC(=N)N)C(=O)N[C@@H](CCCNC(=N)N)C(=O)N[C@@H](CCCNC(=N)N)C(=O)N1CCC[C@H]1C(=O)N[C@@H](CCC(N)=O)C(=O)O (some centres unmarked) [Abl-TAT] (H-GGEAIYAAPC(X1)GGRKKRRQRRRPQ-OH)
MEFs
  peptide degradation to free Cy5: not degraded to free Cy5

## COc1cc(Nc2ncc(F)c(Nc3ccc4c(n3)N(COP(=O)(O)O)C(=O)C(C)(C)O4)n2)cc(OC)c1OC [fostamatinib, reference compound]
Syk kinase; Syk +/+ cells pre-treated with SAStide-TAT-Cy5 biosensor and inhibitor, 1 hour
  regions of increased Cy5 lifetime after inhibitor pre-treatment: no regions of increased lifetime were observed
